The source of these data is US7892764B2, “System for seizure suppression” (priority 2006, dated 2011).

One experiment relates to mouse hippocampal slices. Description: Low Mg2+-induced epileptiform bursting activity (evoked and spontaneous) in hippocampal slices. The following applies: Mg2+-free aCSF; for frequency of spontaneous clustered bursts / frequency of spontaneous clustered bursts relative to control: bath perfusion. Type of experiment: cell-based. How it is done:
Limbic seizures (Avoli et al., 2002) are modeled by removing Mg^2+ from artificial cerebral spinal fluid (aCSF) in slices of hippocampal-entorhinal cortex, which triggers interictal-like bursting activity, or spontaneous ictal-like events (Wong et al., 2001; Anderson et al., 1986). In the presence of normal Mg^2+ (1.5 mM), stimulation of Schaffer collaterals induces single population spike or EPSP in the CA1 region of the hippocampus. […] Perfusion with Mg^2+-free aCSF for about 30 min evoked synchronous burst firing with the same stimulation intensity. In about, 30% of the slices, spontaneous clustered bursts developed in the absence of electrical stimulation. Bath perfusion of amiloride or PcTX1 for 10 min reduced the amplitude and frequency of evoked bursting activity (FIGS. 5A and 5B). Amiloride (100 μM) reduced the amplitude of the first and the second population spikes (from 1.2±0.2 mV to 0.5±0.2 mV and 0.6±0.03 mV to 0.2±0.05 mV, respectively (n=9: p<0.01, FIGS. 5A and 5B), and the number of population spikes (from 4.7±0.6 to 3.3±0.8, n=9, p<0.05)). Similarly, PcTX1 (200 ng/mL) attenuated the amplitude of the population spike (from 2.1±0.3 to 1.6±0.2 mV, n=9, p<0.05) and the number of spikes (from 4.2±0.6 to 3.0±0.6, p<0.05).
Preparation of hippocampal slices and brain slice recording. Hippocampal slices were obtained from 8- to 10-week-old mice. The protocol for brain-slice recording was approved by the Institutional Animal Care and Use Committee of Legacy Research. Animals were deeply anesthetized with isoflurane and decapitated. Brains were quickly removed and placed in ice-cold solution that contained: 125 mM sucrose, 2.5 mM KCl, 26 mM NaHCO3, 1.25 mM NaHPO4, 6.0 mM […], 0.5 mM CaCl2, and 10 mM glucose, and was saturated with 95% O2 and 5% CO2 (pH 7.4). Hippocamnpal slices were cut in 400 μm thickness in transverse plane with a vibratome (Leica VT 1000S) and placed in a slice holding chamber (BSC-PC Prechamber, Warner Instrument) and incubated in normal artificial cerebral spinal fluid (aCSF) that contained: 125 mM NaCl, 2.5 mM KCl, 26 mM NaHCO3, 1.25 mM […], 1.0 mM MgSO4, 2.0 mM CaCl2, and 10 mM glucose, and was saturated with 95% O2 and 5% CO2 (pH 7.4).
Following ˜60 min of incubation at room temperature, individual slices were transferred to a submerged slice chamber with a volume of 0.5 mL (Warner Instruments, Hamden, Conn.) and perfused with oxygenated aCSF (35° C.) at a rate of 3-4 mL/min. Recording electrodes were pulled from borosilicate glass and filled with aCSF. The population spike and the field excitatory postsynaptic potentials (fEPSP) were recorded in stratum pyramidale and striatum radiatum of hippocampal CA1 region, by stimulating Schaffer Collaterals.
For low Mg^2+ induced epileptic burst activity, Mg^2+-free aCSF was perfused to the slices for ˜30 min. For stimulus-train induced bursting discharges (STIB), each stimulation train consisted of 120 pulses at 60 Hz and each pulse was 100 μsec in duration (Stasheff et al., 1985). A 10-minute interval of non-stimulation was provided between successive trains of high frequency stimulation. Stimulation electrodes were located in striatum radiatum between CA1 and CA3 region. The population spikes were recorded from striatum pyramidale of the CA3 region.
Pharmacological and electrical bursting models. To induce epileptic burst discharges, Mg^2+-free aCSF was applied. Mg^2+-free aCSF was obtained by simply omitting MgSO4 from aCSF.

For experiment [1], the system named is cultured mouse hippocampal neurons. Description: Cell culture model of epilepsy: kynurenic acid (Kyn) withdrawal-induced seizure-like activity, current-clamp recording. The format is cell-based. The source says:
We hypothesized that ASICs are involved in seizure propagation. Using the Furshpan and Potter cell culture model of epilepsy (Meller et al., 2003; Furshpan et al., 1998), we tested ASIC blockade in mouse hippocampal neurons cultured with the glutamate antagonist kynurenate (Kyn) and elevated Mg^2+. In the presence of Kyn, the majority of hippocampal neurons remained quiescent. […] Without amiloride, Kyn withdrawal-induced sustained depolarization of 39.5±2.1 mV and paroxysmal bursts at 4.0±0.5 Hz. With 30 μM amiloride, membrane depolarization was reduced to 28.6±2.7 mV (p<0.05, n=5) and burst activity reduced to 2.5±0.4 Hz (p<0.01, FIGS. 3C and 3D). Similarly, application of PcTX1 reduced membrane depolarization from 30.2±3.7 mV to 10.7±1.8 mV (n=8, p<0.01) and burst activity from 5.5±0.6 Hz to 1.2±0.3 Hz (n=9, p<0.01, FIGS. 3C, 3D, and 4).
Cell culture model of epilepsy. Long term cell culture model of epilepsy was performed as described (Furshpan et al., 1989; Meller et al., 2003). Briefly, hippocampal neurons prepared from 1-2 day-old C57BL/6 mice cultured in Neurobasal-A/B27 media supplemented with 10 mM Kyn and 5 mM MgCl2. Culture media was replenished with fresh kynurenic acid/Mg^2+ every 3 days. Cells were used for patch-clamp recording after 3 to 4 weeks. Following the formation of a tight seal in a whole-cell configuration, neurons were current-clamped at ˜−60 mV. In the presence of Kyn, the majority of hippocampal neurons remained quiescent. […] The spontaneous electrical behavior of the culture has many of the characteristics of seizure activity in an intact cortex. This system allows seizure-related cellular mechanisms to be studied in long-term cell culture.
Patch clamp techniques. Whole-cell voltage-clamp and current-clamp recordings were performed as described in our previous studies (Xiong et al., 2004). Patch electrodes were constructed from thin-welled borosilicate glass (1.5 mm diameter, WPI, Sarasota, Fla., USA) on a two-stage puller (PP83 Narishige, Tokyo). The resistances of patch electrodes were 1.5-3 MΩ when filled with the intracellular solution (see below). Whole-cell currents were recorded using Axopatch 200B amplifiers with pCLAMP software (Axon Instruments, CA, USA). Data were filtered at 2 kHz and digitized at 5 kHz using Digidata 1322 (Axon Instruments). During each experiment, a voltage step of −10 mV was applied periodically to monitor the cell capacitance and the access resistance. A multi-barrel perfusion system (SF-77, Warner Instrument Co., Conn., USA) was employed to achieve a rapid exchange of solutions. All experiments were performed at room temperature (22-24° C.).

[2] abbreviates: 100 μM amiloride, bath perfusion 10 min, evoked.
Where [3] appears, read: 30 μM amiloride, perfused 2 min before and during Kyn withdrawal.
[4] abbreviates: PcTX1 200 ng/mL, bath perfusion 10 min, evoked.
Where [5] appears, read: PcTX1 (venom 200 ng/mL total protein per FIG. 4 legend).

As to `NC(N)=NC(=O)c1nc(Cl)c(N)nc1N` [amiloride, 3,5-diamino-6-chloro-N(diaminomethylidene)pyrazine-2-carboxamide], in the experiment on mouse hippocampal slices (setting [2]), the “amplitude of the first population spike” value came out at 0.5±0.2 mV, the “amplitude of the second population spike” value was 0.2±0.05 mV and the “number of population spikes” value is on record as 3.3±0.8. Further, in the experiment with mouse hippocampal slices, the “frequency of spontaneous clustered bursts” value turned out to be 26.0 ± 5.8 min⁻¹ and the “frequency of spontaneous clustered bursts relative to control” value is 0.84±0.05 of control. In experiment [1] (setting [3]), the “Kyn withdrawal-induced paroxysmal burst activity (frequency)” value is on record as 2.5±0.4 Hz and the “Kyn withdrawal-induced sustained membrane depolarization” value is 28.6±2.7 mV.
Psalmotoxin 1 [PcTX1]: in the experiment on mouse hippocampal slices, the “frequency of spontaneous clustered bursts” value was determined as 59.9 ± 11.3 min⁻¹ and the “frequency of spontaneous clustered bursts relative to control” value is 0.68±0.07 of control. Moreover, in the experiment with mouse hippocampal slices (setting [4]), the “amplitude of the population spike” value worked out at 1.6±0.2 mV and the number of spikes was 3.0±0.6. For the same compound, in experiment [1] (setting [5]), the “Kyn withdrawal-induced burst activity (frequency)” value was found to be 1.2±0.3 Hz and the “Kyn withdrawal-induced membrane depolarization” value is 10.7±1.8 mV.
